Experimental data reported in US4416877A, “Anti-atherosclerotic pharmaceutical compositions containing diphosphonate compounds” (priority 1979, dated 1983).
Where two headings read alike, the source gives them in different places.

Key:
[1] = Oral LD50 toxicity; format: in vivo
Source text: Following the extensive pharmacological screening of these compounds, using over 2000 animals, those showing the most potential were then subjected to toxicity testing for further selection relative to their activity/toxicity risk profiles
By way of LD50 (Lethal Dose 50) the methyl diphosphonates were discovered to have a significant lower degree of toxicity. […] This represents a significant six fold difference in toxicity.

[2] = system: lipoprotein cholesterol; assay: Lipoprotein cholesterol in cholesterol pre-fed rabbits; format: in vivo; settings: 200 mg/kg per day, 4 months, n = 5
Source text: Animals were fed a cholesterol rich diet for 8 weeks before treatment was
started which continued for 4 months without cholesterol supplement.

[3] = Atheromateous surface involvement and intima thickening of aortas in cholesterol pre-fed rabbits; format: in vivo; settings: 4 months
[4] = system: α/β cholesterol ratio; assay: Lipoprotein changes produced by one dose in a Cynomolgus monkey; format: in vivo; settings: for α/β cholesterol ratio: 250 mg/kg p.o.
[5] = system: blood pressure; assay: Cardiovascular changes (blood pressure, heart rate) produced by one dose in a Cynomolgus monkey; format: in vivo; settings: for Blood pressure / Heart Rate: 250 mg/kg p.o.
[6] = system: lipoproteins; assay: Effect on lipoproteins from 5 treated human patients; format: in vivo; settings: for HDL2 Cholesterol / HDL2 Free/Total Cholesterol ratio / HDL3 Cholesterol / HDL3 Free/Total Cholesterol ratio / LDL Cholesterol / LDL Free/Total Cholesterol ratio / VLDL Cholesterol / VLDL Free/Total Cholesterol ratio: n = 5; for HDL2 Free/Total Cholesterol ratio, % change / HDL3 Cholesterol, % change / HDL3 Free/Total Cholesterol ratio, % change / VLDL Free/Total Cholesterol ratio, % change: vs pre-test
Procedure: Five human patients were treated over several days with either 5 mg/kg or 10 mg/kg of compound 16 (Table XV). […] It is generally recognized that an increase in free cholesterol ratio is indicative of an increased clearing or turnover of the lipoprotein cholesterol (Schwartz, C. C. Biochem. Biophys. Acta 663:143-162, 1981).

[7] = system: lipid metabolism; assay: Effects of diphosphonates on lipid metabolism in normal rats (serum lipids, α/β cholesterol); format: in vivo, male Wistar rats; settings: for change in vivo at 200 mg/kg/day: Rattus norvegicus, po, normal rats (N), 200 mg/kg/day p.o.
Procedure: Effects of diphosphonates of formula (I) on lipid metabolism in normal rats Groups of 4 to 5 normal male Wistar rats, weighing about 200 g were treated with diphosphonates (200 mg/kg/day) p.o. for 4 to 21 days. Water soluble compounds were given in solution in 24 mM bicarbonate buffer. Lipid soluble compounds were given in corn oil. The rats were weighed, sacrificed by decapitation (under light ether anesthesia) after overnight fasting. Blood was collected and serum used for analysis. The following blood parameters reflecting changes in lipid metabolism are reported: […]
free fatty acids measured according to W. G. Duncombe (Clin. Acta 9, 122, 1964) triglycerides enzymatic method (Boehringer Mannheim Kit 126 012) phospholipids: molybdate/vanadate reaction (Boehringer Mannheim Kit 124 974) β-lipoprotein cholesterol was measured after heparin, CaCl2 precipitation according to M. Burstein et al. (La Presse Medicale 43, 974, 1958) and to D. Watson (Clin. Chim. Acta 5, 637, 1960).
In above Table IV, results are given as % control values. Except for serum calcium, values which differ from control values by less than 15% are considered as non significant (NS).
Serum free fatty acids, triglycerides and phospholipids were measured in normal rats (N) and rats previously fed a cholesterol diet for 10 days (C.F.) Serum α/β cholesterol, total lipids and cholesterol of liver and aorta were determined in normal rats (N) and rats which had previously been fed on high cholesterol diet (C.F.)

[8] = system: lipoprotein cholesterol; assay: Lipoprotein changes in normal Cynomolgus monkeys treated during 60 days; format: in vivo; settings: for Total Cholesterol / alpha Cholesterol / alpha/beta Cholesterol Ratio / beta Cholesterol: n = 7
Procedure: To further test the long term efficacity of compound 16, normal male and female Cynomolgus monkeys were treated during 60 days (Table XIII).
Dose: 25 mg/kg/day for 45 days 50 mg/kg/day for last 15 days

[9] = 60 days, 50 mg/kg/day for last 15 days

Structure (SMILES): COP(=O)(OC)OC(c1ccc(Cl)cc1)P(=O)(OC)OC (stereo not drawn) [Compound 16, Dimethyl α(dimethoxyphosphinyl) p-chlorobenzyl phosphate]
- LD50 ([1]; in vivo, oral): 3040 mg/kg
- difference in toxicity (LD50, compound 16 vs compound 24) ([1]; oral LD50): six fold
- Total Cholesterol [2]: 127.0 ± 68.0
- α-chol [2]: 41.1 ± 11.1
- α/β-ratio [2]: 0.94
- β-chol [2]: 63.4 ± 43.0
- α/β-ratio ([2]; listed as Cpd 16): 0.94 ± 0.20
- Arch Intima/Media Ratio ([3]; 100 mg/kg/day, n = 4): 0.79
- Arterial Wall Thickness, Arch Intima ([3]; 100 mg/kg/day, n = 4): 41.82 ± 0.93 Units in Area
- Arterial Wall Thickness, Thoracic Intima ([3]; 100 mg/kg/day, n = 4): 7.66 ± 0.12 Units in Area
- Surface Involved in Atheromateous Plaques, Arch ([3]; 100 mg/kg/day, n = 4): 88 ± 9%
- Surface Involved in Atheromateous Plaques, Thoracic ([3]; 100 mg/kg/day, n = 4): 50 ± 15%
- Surface Involved in Atheromateous Plaques, Total Aorta ([3]; 100 mg/kg/day, n = 4): 68 ± 12%
- Thoracic Intima/Media Ratio ([3]; 100 mg/kg/day, n = 4): 0.23
- aorta intimal thickening ([3]; cholesterol pre-fed rabbits): decreased aorta intimal thickening
- atherosclerosis surface involvement ([3]; cholesterol pre-fed rabbits): decreased atherosclerosis surface involvement
- α/β cholesterol ratio ([4]; +1h): 0.71
- α/β cholesterol ratio ([4]; +2h): 0.82
- α/β cholesterol ratio ([4]; +3h): 0.83
- α/β cholesterol ratio ([4]; +5h): 0.89
- α/β cholesterol ratio ([4]; +6h): 0.92
- α/β ratio ([4]; additional administration, 5 days): 0.88
- increase in α/β cholesterol levels ([4]; single oral dose 250 mg/kg, 6 hours): 39%
- decrease of blood pressure ([5]; 250 mg/kg oral, six hours period): at least 40%
- Blood pressure ([5]; +1h): 65 mmHg
- Heart Rate ([5]; +1h): 195 beat/min.
- Blood pressure ([5]; +2h): 70 mmHg
- Blood pressure ([5]; +3h): 100 mmHg
- Heart Rate ([5]; +3h): 195 beat/min.
- Blood pressure ([5]; +5h): 95 mmHg
- Heart Rate ([5]; +5h): 210 beat/min.
- Blood pressure ([5]; +6h): 105 mmHg
- Heart Rate ([5]; +6h): 210 beat/min.
- HDL2 Cholesterol ([6]; 5 mg/kg): 0.82 ± 0.13 mmol/L
- HDL2 Free/Total Cholesterol ratio ([6]; 5 mg/kg): 0.231 ± 0.027
- HDL3 Cholesterol ([6]; 5 mg/kg): 0.72 ± 0.09 mmol/L
- HDL3 Free/Total Cholesterol ratio ([6]; 5 mg/kg): 0.242 ± 0.018
- LDL Cholesterol ([6]; 5 mg/kg): 3.05 ± 0.26 mmol/L
- LDL Free/Total Cholesterol ratio ([6]; 5 mg/kg): 0.304 ± 0.005
- VLDL Cholesterol ([6]; 5 mg/kg): 0.20 ± 0.03 mmol/L
- VLDL Free/Total Cholesterol ratio ([6]; 5 mg/kg): 0.472 ± 0.019
- HDL2 Free/Total Cholesterol ratio, % change ([6]; 5 mg/kg): +24%
- HDL3 Cholesterol, % change ([6]; 5 mg/kg): +36%
- HDL3 Free/Total Cholesterol ratio, % change ([6]; 5 mg/kg): +12%
- VLDL Free/Total Cholesterol ratio, % change ([6]; 5 mg/kg): +14%
- HDL2 Cholesterol ([6]; 10 mg/kg): 0.87 ± 0.07 mmol/L
- HDL2 Free/Total Cholesterol ratio ([6]; 10 mg/kg): 0.221 ± 0.003
- HDL3 Cholesterol ([6]; 10 mg/kg): 0.60 ± 0.02 mmol/L
- HDL3 Free/Total Cholesterol ratio ([6]; 10 mg/kg): 0.285 ± 0.044
- LDL Cholesterol ([6]; 10 mg/kg): 2.86 ± 0.23 mmol/L
- LDL Free/Total Cholesterol ratio ([6]; 10 mg/kg): 0.303 ± 0.002
- VLDL Cholesterol ([6]; 10 mg/kg): 0.26 ± 0.03 mmol/L
- VLDL Free/Total Cholesterol ratio ([6]; 10 mg/kg): 0.519 ± 0.031
- HDL2 Free/Total Cholesterol ratio, % change ([6]; 10 mg/kg): +19%
- HDL3 Cholesterol, % change ([6]; 10 mg/kg): +13%
- HDL3 Free/Total Cholesterol ratio, % change ([6]; 10 mg/kg): +32%
- VLDL Free/Total Cholesterol ratio, % change ([6]; 10 mg/kg): +25%
- HDL3-cholesterol ([6]; human patients, 5 or 10 mg/kg): significant increase
- free/total cholesterol ratio in isolated lipoprotein fractions ([6]; human patients, 5 or 10 mg/kg): significantly elevated
- change in vivo at 200 mg/kg/day ([7]; read-out: Serum Chol. α/β (% control values)): 121%
- change in vivo at 200 mg/kg/day ([7]; read-out: Serum Free Fatty Acids (% control values)): -50%
- change in vivo at 200 mg/kg/day ([7]; read-out: Serum Phospholipids (% control values)): 26%
- change in vivo at 200 mg/kg/day ([7]; read-out: Serum Triglycerides (% control values)): < 15%
- increased HDL lipids, especially HDL cholesterol ([7]; normal rats): observed most dramatically
- increase in serum phospholipid ([7]; rats): found to increase
- α-cholesterol/β-cholesterol ratio / lipoprotein cholesterol ([7]; rats): highly significant activity
- Total Cholesterol ([8]; 45 days, 25 mg/kg/day): 99 ± 8 mg/100 ml
- alpha Cholesterol ([8]; 45 days, 25 mg/kg/day): 54 ± 5 mg/100 ml
- alpha/beta Cholesterol Ratio ([8]; 45 days, 25 mg/kg/day): 1.17
- beta Cholesterol ([8]; 45 days, 25 mg/kg/day): 46 ± 4 mg/100 ml
- Total Cholesterol [8, 9]: 85 ± 7 mg/100 ml
- alpha Cholesterol [8, 9]: 46 ± 4 mg/100 ml
- alpha/beta Cholesterol Ratio [8, 9]: 1.09
- beta Cholesterol [8, 9]: 41 ± 5 mg/100 ml
- HDL (α-cholesterol) and α/β ratio ([8]; normal monkeys): augmentation in HDL (α-cholesterol) and a significant increase in α/β ratio
- blood urea levels ([8]; normal monkeys, treated vs controls): significantly lower
